{"source": "patent EP2818472A1", "about": "“Imidazo[4,5-c]pyridine and pyrrolo[3,2-c]pyridine compounds as G-protein-coupled receptor kinase 5 (GRK5) modulators” (Max-Planck-Gesellschaft zur Förderung der Wissenschaften …, priority 2013, dated 2014)"}
{"system": "beta-TC6 cells", "assay": "Insulin HTRF assay (relative activity Ar) in beta-TC6 cells", "format": "cell-based, mouse", "settings": "Mus musculus, Beta-TC6, 4 h, insulin HTRF, supernatant of beta-TC6 cells, incubation with test compound at 37°C for 2, 3, 4h; read-out: Ar (relative activity)", "procedure,_shortened": "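beta-TC6 cells (15k/well, seeded 24 or 48 h) washed, then exposed to compound in induction buffer (0.5% DMSO final) for 2, 3 or 4 h at 37°C.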", "units": {"Emax": "%"}}
{"smiles": "c1ccc(-c2nc3c(NCCc4ccccn4)nccc3[nH]2)cc1", "note": "[Compound 332, 2-phenyl-N-[2-(2-pyridyl)ethyl]-1H-imidazo[4,5-c]pyridin-4-amine]", "Emax": "30 to 50"}
{"smiles": "COc1ccc(Nc2nccc3[nH]c(-c4ccccc4)nc23)cc1", "note": "[Compound 333, N-(4-methoxyphenyl)-2-phenyl-1H-imidazo[4,5-c]pyridin-4-amine]", "Emax": "50 to 100"}
{"smiles": "CN1CCN(c2nccc3[nH]c(-c4ccccc4)nc23)CC1", "note": "[Compound 334, 4-(4-methylpiperazin-1-yl)-2-phenyl-1H-imidazo[4,5-c]pyridine]", "Emax": "30 to 50"}
{"smiles": "c1ccc(-c2nc3c(NCc4ccncc4)nccc3[nH]2)cc1", "note": "[Compound 335, 2-phenyl-N-(4-pyridylmethyl)-1H-imidazo[4,5-c]pyridin-4-amine]", "Emax": "0 to 30"}
{"smiles": "CS(=O)(=O)c1cccc(Nc2nccc3[nH]c(-c4ccccc4)nc23)c1", "note": "[Compound 336, N-(3-methylsulfonylphenyl)-2-phenyl-1H-imidazo[4,5-c]pyridin-4-amine]", "Emax": "30 to 50"}
{"smiles": "Oc1cccc(Nc2nccc3[nH]c(-c4ccccc4)nc23)c1", "note": "[Compound 337, 3-[(2-phenyl-1H-imidazo[4,5-c]pyridin-4-yl)amino]phenol]", "Emax": "30 to 50"}
{"smiles": "c1ccc(-c2nc3c(N4CCOCC4)nccc3[nH]2)cc1", "note": "[Compound 338, 4-(2-phenyl-1H-imidazo[4,5-c]pyridin-4-yl)morpholine]", "Emax": "30 to 50"}
{"smiles": "c1ccc(-c2nc3c(NCC4CC4)nccc3[nH]2)cc1", "note": "[Compound 339, N-(cyclopropylmethyl)-2-phenyl-1H-imidazo[4,5-c]pyridin-4-amine]", "Emax": "30 to 50"}
{"smiles": "COCCCNc1nccc2[nH]c(-c3ccccc3)nc12", "note": "[Compound 340, N-(3-methoxypropyl)-2-phenyl-1H-imidazo[4,5-c]pyridin-4-amine]", "Emax": "30 to 50"}
{"smiles": "COc1cccc(Nc2nccc3[nH]c(-c4ccc(OC)c(OC)c4)nc23)c1", "note": "[Compound 341, 2-(3,4-dimethoxyphenyl)-N-(3-methoxyphenyl)-1H-imidazo[4,5-c]pyridin-4-amine]", "Emax": "50 to 100"}
{"smiles": "COc1ccc(-c2nc3c(Nc4ccccc4)nccc3[nH]2)cc1OC", "note": "[Compound 342, 2-(3,4-dimethoxyphenyl)-N-phenyl-1H-imidazo[4,5-c]pyridin-4-amine]", "Emax": "50 to 100"}
{"smiles": "COc1ccc(-c2nc3c(Nc4cccc(N(C)C)c4)nccc3[nH]2)cc1OC", "note": "[Compound 343, N1-[2-(3,4-dimethoxyphenyl)-1H-imidazo[4,5-c]pyridin-4-yl]-N3,N3-dimethyl-benzene-1,3-diamine]", "Emax": "50 to 100"}
{"smiles": "COc1ccc(-c2nc3c(NCC(C)C)nccc3[nH]2)cc1OC", "note": "[Compound 344, 2-(3,4-dimethoxyphenyl)-N-isobutyl-1H-imidazo[4,5-c]pyridin-4-amine]", "Emax": "30 to 50"}
{"smiles": "COc1ccc(Nc2nccc3[nH]c(-c4ccc(OC)c(OC)c4)nc23)cc1", "note": "[Compound 345, 2-(3,4-dimethoxyphenyl)-N-(4-methoxyphenyl)-1H-imidazo[4,5-c]pyridin-4-amine]", "Emax": "> 100"}
{"smiles": "COc1ccc(-c2nc3c(N4CCN(C)CC4)nccc3[nH]2)cc1OC", "note": "[Compound 346, 2-(3,4-dimethoxyphenyl)-4-(4-methylpiperazin-1-yl)-1H-imidazo[4,5-c]pyridine]", "Emax": "50 to 100"}
{"smiles": "COc1ccc(-c2nc3c(NCc4ccccc4)nccc3[nH]2)cc1OC", "note": "[Compound 347, N-benzyl-2-(3,4-dimethoxyphenyl)-1H-imidazo[4,5-c]pyridin-4-amine]", "Emax": "50 to 100"}
{"smiles": "COc1ccc(-c2nc3c(NC4CCC(O)CC4)nccc3[nH]2)cc1OC", "note": "(stereo not drawn) [Compound 348, 4-[[2-(3,4-dimethoxyphenyl)-1H-imidazo[4,5-c]pyridin-4-yl]amino]cyclohexanol]", "Emax": "30 to 50"}
{"smiles": "COc1ccc(-c2nc3c(N(C)c4ccccc4)nccc3[nH]2)cc1OC", "note": "[Compound 349, 2-(3,4-dimethoxyphenyl)-N-methyl-N-phenyl-1H-imidazo[4,5-c]pyridin-4-amine]", "Emax": "30 to 50"}
{"smiles": "COc1ccc(-c2nc3c(NCc4ccc(N(C)C)cc4)nccc3[nH]2)cc1OC", "note": "[Compound 350, 2-(3,4-dimethoxyphenyl)-N-[(4-dimethylaminophenyl)methyl]-1H-imidazo[4,5-c]pyridin-4-amine]", "Emax": "30 to 50"}
{"smiles": "COc1ccc(-c2nc3c(Nc4cccc(S(C)(=O)=O)c4)nccc3[nH]2)cc1OC", "note": "[Compound 351, 2-(3,4-dimethoxyphenyl)-N-(3-methylsulfonylphenyl)-1H-imidazo[4,5-c]pyridin-4-amine]", "Emax": "50 to 100"}
{"smiles": "COc1ccc(-c2nc3c(Nc4cccc(O)c4)nccc3[nH]2)cc1OC", "note": "[Compound 352, 3-[[2-(3,4-dimethoxyphenyl)-1H-imidazo[4,5-c]pyridin-4-yl]amino]phenol]", "Emax": "> 100"}
{"smiles": "COc1ccc(-c2nc3c(N4CCOCC4)nccc3[nH]2)cc1OC", "note": "[Compound 353, 4-[2-(3,4-dimethoxyphenyl)-1H-imidazo[4,5-c]pyridin-4-yl]morpholine]", "Emax": "50 to 100"}
{"smiles": "COc1ccc(-c2nc3c(NCC4CC4)nccc3[nH]2)cc1OC", "note": "[Compound 354, N-(cyclopropylmethyl)-2-(3,4-dimethoxyphenyl)-1H-imidazo[4,5-c]pyridin-4-amine]", "Emax": "50 to 100"}
{"smiles": "COCCNc1nccc2[nH]c(-c3cccc(C(F)(F)F)c3)nc12", "note": "[Compound 355, N-(2-methoxyethyl)-2-[3-(trifluoromethyl)phenyl]-1H-imidazo[4,5-c]pyridin-4-amine]", "Emax": "30 to 50"}
{"smiles": "COc1ccc(Nc2nccc3[nH]c(-c4cccc(C(F)(F)F)c4)nc23)cc1", "note": "[Compound 356, N-(4-methoxyphenyl)-2-[3-(trifluoromethyl)phenyl]-1H-imidazo[4,5-c]pyridin-4-amine]", "Emax": "> 100"}
{"smiles": "FC(F)(F)c1cccc(-c2nc3c(NCCN4CCOCC4)nccc3[nH]2)c1", "note": "[Compound 357, N-(2-morpholinoethyl)-2-[3-(trifluoromethyl)phenyl]-1H-imidazo[4,5-c]pyridin-4-amine]", "Emax": "30 to 50"}
{"smiles": "COc1cccc(Nc2nccc3[nH]c(-c4cccnc4)nc23)c1", "note": "[Compound 358, N-(3-methoxyphenyl)-2-(3-pyridyl)-1H-imidazo[4,5-c]pyridin-4-amine]", "Emax": "50 to 100"}
{"smiles": "CCN(CC)CCNC(=O)c1ccc(Nc2nccc3[nH]c(-c4cccnc4)nc23)cc1", "note": "[Compound 359, N-(2-diethylaminoethyl)-4-[[2-(3-pyridyl)-1H-imidazo[4,5-c]pyridin-4-yl]amino]benzamide]", "Emax": "30 to 50"}
{"smiles": "c1ccc(CNc2nccc3[nH]c(-c4cccnc4)nc23)cc1", "note": "[Compound 360, N-benzyl-2-(3-pyridyl)-1H-imidazo[4,5-c]pyridin-4-amine]", "Emax": "0 to 30"}
{"smiles": "COc1ccc(Nc2nccc3[nH]c(-c4cccc(O)c4)nc23)cc1", "note": "[Compound 362, 3-[4-(4-methoxyanilino)-1H-imidazo[4,5-c]pyridin-2-yl]phenol]", "Emax": "50 to 100"}
{"smiles": "Oc1cccc(-c2nc3c(N4CCOCC4)nccc3[nH]2)c1", "note": "[Compound 363, 3-(4-morpholino-1H-imidazo[4,5-c]pyridin-2-yl)phenol]", "Emax": "30 to 50"}
{"smiles": "COc1cc(Nc2nccc3[nH]c(-c4ccc(O)cc4)nc23)cc(OC)c1OC", "note": "[Compound 364, 4-[4-(3,4,5-trimethoxyanilino)-1H-imidazo[4,5-c]pyridin-2-yl]phenol]", "Emax": "50 to 100"}
{"smiles": "Oc1ccc(-c2nc3c(Nc4ccccc4)nccc3[nH]2)cc1", "note": "[Compound 365, 4-(4-anilino-1H-imidazo[4,5-c]pyridin-2-yl)phenol]", "Emax": "30 to 50"}
{"smiles": "CS(=O)(=O)Nc1cccc(Nc2nccc3[nH]c(-c4ccc(O)cc4)nc23)c1", "note": "[Compound 366, N-[3-[[2-(4-hydroxyphenyl)-1H-imidazo[4,5-c]pyridin-4-yl]amino]phenyl]methanesulfonamide]", "Emax": "30 to 50"}
{"smiles": "COc1cccc(-c2nc3c(Nc4cc(OC)c(OC)c(OC)c4)nccc3[nH]2)c1", "note": "[Compound 367, 2-(3-methoxyphenyl)-N-(3,4,5-trimethoxyphenyl)-1H-imidazo[4,5-c]pyridin-4-amine]", "Emax": "30 to 50"}
{"smiles": "COc1cccc(Nc2nccc3[nH]c(-c4cccc(OC)c4)nc23)c1", "note": "[Compound 368, N,2-bis(3-methoxyphenyl)-1H-imidazo[4,5-c]pyridin-4-amine]", "Emax": "30 to 50"}
{"smiles": "COc1cccc(-c2nc3c(Nc4ccc(OC)c(OC)c4)nccc3[nH]2)c1", "note": "[Compound 369, N-(3,4-dimethoxyphenyl)-2-(3-methoxyphenyl)-1H-imidazo[4,5-c]pyridin-4-amine]", "Emax": "> 100"}
{"smiles": "COc1cccc(-c2nc3c(Nc4ccccc4)nccc3[nH]2)c1", "note": "[Compound 370, 2-(3-methoxyphenyl)-N-phenyl-1H-imidazo[4,5-c]pyridin-4-amine]", "Emax": "30 to 50"}
{"smiles": "COc1cccc(-c2nc3c(NCCc4ccccn4)nccc3[nH]2)c1", "note": "[Compound 371, 2-(3-methoxyphenyl)-N-[2-(2-pyridyl)ethyl]-1H-imidazo[4,5-c]pyridin-4-amine]", "Emax": "30 to 50"}
{"smiles": "COc1ccc(Nc2nccc3[nH]c(-c4cccc(OC)c4)nc23)cc1", "note": "[Compound 372, 2-(3-methoxyphenyl)-N-(4-methoxyphenyl)-1H-imidazo[4,5-c]pyridin-4-amine]", "Emax": "50 to 100"}
{"smiles": "COc1cccc(-c2nc3c(Nc4cccc(C(F)(F)F)c4)nccc3[nH]2)c1", "note": "[Compound 373, 2-(3-methoxyphenyl)-N-[3-(trifluoromethyl)phenyl]-1H-imidazo[4,5-c]pyridin-4-amine]", "Emax": "0 to 30"}
{"smiles": "COc1cccc(-c2nc3c(Nc4cccc(O)c4)nccc3[nH]2)c1", "note": "[Compound 374, 3-[[2-(3-methoxyphenyl)-1H-imidazo[4,5-c]pyridin-4-yl]amino]phenol]", "Emax": "50 to 100"}
{"smiles": "COc1cccc(-c2nc3c(N4CCOCC4)nccc3[nH]2)c1", "note": "[Compound 375, 4-[2-(3-methoxyphenyl)-1H-imidazo[4,5-c]pyridin-4-yl]morpholine]", "Emax": "30 to 50"}
{"smiles": "COc1cccc(-c2nc3c(NCC4CC4)nccc3[nH]2)c1", "note": "[Compound 376, N-(cyclopropylmethyl)-2-(3-methoxyphenyl)-1H-imidazo[4,5-c]pyridin-4-amine]", "Emax": "30 to 50"}
{"smiles": "COc1cc(Nc2nccc3[nH]c(-c4ccc(C)cc4)nc23)cc(OC)c1OC", "note": "[Compound 377, 2-(p-tolyl)-N-(3,4,5-trimethoxyphenyl)-1H-imidazo[4,5-c]pyridin-4-amine]", "Emax": "30 to 50"}
